Experiments:
Ypk1 = biological target: T1, Ypk1 (Saccharomyces cerevisiae, UniProt P12688); test: Affinity purification of tagged protein kinase and LC-MS of bound metabolites; assay type: binding; conditions: identified against pure standards
T1 sequence (P12688 1-680): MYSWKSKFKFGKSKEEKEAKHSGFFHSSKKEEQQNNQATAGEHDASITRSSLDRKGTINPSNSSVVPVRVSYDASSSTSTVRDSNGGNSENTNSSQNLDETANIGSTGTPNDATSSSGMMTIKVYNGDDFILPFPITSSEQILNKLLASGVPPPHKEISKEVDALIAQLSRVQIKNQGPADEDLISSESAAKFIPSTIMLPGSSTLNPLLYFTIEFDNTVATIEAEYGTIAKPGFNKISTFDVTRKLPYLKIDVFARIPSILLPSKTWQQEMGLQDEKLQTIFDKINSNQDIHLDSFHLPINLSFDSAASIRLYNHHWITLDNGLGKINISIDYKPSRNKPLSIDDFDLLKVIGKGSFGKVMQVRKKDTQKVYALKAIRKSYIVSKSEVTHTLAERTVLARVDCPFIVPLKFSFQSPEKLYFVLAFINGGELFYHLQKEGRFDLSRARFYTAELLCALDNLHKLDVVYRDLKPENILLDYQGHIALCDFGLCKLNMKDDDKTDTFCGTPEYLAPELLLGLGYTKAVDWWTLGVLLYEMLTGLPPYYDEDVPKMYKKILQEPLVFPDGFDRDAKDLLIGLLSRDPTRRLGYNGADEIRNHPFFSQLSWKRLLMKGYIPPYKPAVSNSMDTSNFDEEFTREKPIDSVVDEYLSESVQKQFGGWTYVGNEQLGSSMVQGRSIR

[1] = test system: 21 ergosterol biosynthetic proteins (Erg proteins); conditions: of 21 Erg enzymes, above the control
Ssk22 = biological target: T2, Ssk22 (Saccharomyces cerevisiae, UniProt P25390); test: Ssk22 protein levels purified from erg4Δ cells with exogenous ergosterol; assay type: cell-based; conditions: erg4Δ mutant strain, exogenous ergosterol added to the medium
T2 sequence (P25390 1-1331): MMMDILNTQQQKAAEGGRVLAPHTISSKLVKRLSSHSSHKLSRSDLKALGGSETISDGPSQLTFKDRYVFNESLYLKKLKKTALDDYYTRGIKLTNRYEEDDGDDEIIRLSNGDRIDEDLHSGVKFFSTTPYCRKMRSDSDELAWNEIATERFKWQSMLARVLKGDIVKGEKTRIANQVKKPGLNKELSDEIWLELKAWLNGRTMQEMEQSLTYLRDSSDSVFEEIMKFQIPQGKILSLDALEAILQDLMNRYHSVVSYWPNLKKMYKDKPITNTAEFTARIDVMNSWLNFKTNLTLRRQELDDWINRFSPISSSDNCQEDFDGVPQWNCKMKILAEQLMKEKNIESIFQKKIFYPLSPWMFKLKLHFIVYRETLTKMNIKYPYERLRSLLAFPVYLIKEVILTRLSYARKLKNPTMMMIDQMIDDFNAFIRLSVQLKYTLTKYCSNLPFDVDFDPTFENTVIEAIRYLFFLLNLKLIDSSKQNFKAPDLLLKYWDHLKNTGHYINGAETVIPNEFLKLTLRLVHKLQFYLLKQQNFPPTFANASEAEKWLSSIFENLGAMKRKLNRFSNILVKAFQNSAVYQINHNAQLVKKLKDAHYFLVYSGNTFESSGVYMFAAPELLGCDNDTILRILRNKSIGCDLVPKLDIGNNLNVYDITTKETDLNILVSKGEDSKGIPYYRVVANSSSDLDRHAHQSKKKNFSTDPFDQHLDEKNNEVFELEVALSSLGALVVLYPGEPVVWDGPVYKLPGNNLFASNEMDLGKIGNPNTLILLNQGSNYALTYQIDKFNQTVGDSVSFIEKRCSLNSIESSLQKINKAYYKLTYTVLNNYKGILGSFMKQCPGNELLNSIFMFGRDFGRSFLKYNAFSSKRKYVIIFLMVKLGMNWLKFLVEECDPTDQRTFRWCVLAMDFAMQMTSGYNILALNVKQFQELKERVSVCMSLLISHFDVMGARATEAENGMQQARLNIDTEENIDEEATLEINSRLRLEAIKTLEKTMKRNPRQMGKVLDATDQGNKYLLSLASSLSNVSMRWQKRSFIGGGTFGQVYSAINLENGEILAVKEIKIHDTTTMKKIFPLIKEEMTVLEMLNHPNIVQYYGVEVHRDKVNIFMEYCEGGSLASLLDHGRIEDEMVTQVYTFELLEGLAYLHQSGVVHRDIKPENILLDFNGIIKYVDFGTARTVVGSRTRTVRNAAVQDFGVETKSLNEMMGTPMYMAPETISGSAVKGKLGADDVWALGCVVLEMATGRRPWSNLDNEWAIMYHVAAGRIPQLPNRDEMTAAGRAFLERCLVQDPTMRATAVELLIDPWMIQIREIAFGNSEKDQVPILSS

## CC(C)[C@@H](C)/C=C/[C@@H](C)[C@H]1CC[C@H]2C3=CC=C4C[C@@H](O)CC[C@]4(C)[C@H]3CC[C@]12C [ergosterol]
Ypk1
  metabolite extracted from Ypk1: bound metabolite
[1]
  number of Erg proteins the metabolite co-purified with: 5
Ssk22
  Ssk22 protein levels: restored Ssk22 levels

— PMC3005334 (Cell, 2010)
